Results as given in ChEMBL document CHEMBL5055675, “Apoptosis Inducing 1,3,4-Oxadiazole Conjugates of Capsaicin: Their In Vitro Antiproliferative and In Silico Studies” (ACS Med Chem Lett, 2021).
Calls of active or inactive are those of the source. The rule behind the calls is not given here.

What was measured:
CAKI-1 = assay: Antiproliferative activity against human CAKI-1 cells assessed as cell growth at 10 uM incubated for 48 hrs by sulforhodamine B assay relative to control; type: functional; conditions: read-out: Activity
NCI-H460 [1] = assay: Cell cycle arrest in human NCI-H460 cells assessed as accumulation of cells in S phase at 5 uM measured after 72 hrs by propidium iodide/RNase staining based flow cytometry analysis (Rvb= 26.87%); type: functional
NCI-H460 [2] = assay: Cell cycle arrest in human NCI-H460 cells assessed as accumulation of cells in G2/M phase at 5 uM measured after 72 hrs by propidium iodide/RNase staining based flow cytometry analysis (Rvb= 10.22%); type: functional
NCI-H460 [3] = assay: Cell cycle arrest in human NCI-H460 cells assessed as accumulation of cells in S phase at 10 uM measured after 72 hrs by propidium iodide/RNase staining based flow cytometry analysis (Rvb= 26.87%); type: functional
NCI-H460 [4] = assay: Cell cycle arrest in human NCI-H460 cells assessed as accumulation of cells in G1 phase at 20 uM measured after 72 hrs by propidium iodide/RNase staining based flow cytometry analysis (Rvb= 62.9%); type: functional
NCI-H460 [5] = assay: Cell cycle arrest in human NCI-H460 cells assessed as accumulation of cells in S phase at 20 uM measured after 72 hrs by propidium iodide/RNase staining based flow cytometry analysis (Rvb= 26.87%); type: functional
NCI-H460 [6] = assay: Induction of apoptosis in human NCI-H460 cells assessed as early apoptotic cells at 5 uM measured after 72 hrs by Annexin V-FITC and propidium iodide staining based flow cytometry analysis (Rvb= 6.61%); type: functional
NCI-H460 [7] = assay: Induction of apoptosis in human NCI-H460 cells assessed as late apoptotic cells at 10 uM measured after 72 hrs by Annexin V-FITC and propidium iodide staining based flow cytometry analysis (Rvb= 6.93%); type: functional
NCI-H460 [8] = assay: Induction of apoptosis in human NCI-H460 cells assessed as late apoptotic cells at 20 uM measured after 72 hrs by Annexin V-FITC and propidium iodide staining based flow cytometry analysis (Rvb= 6.93%); type: functional
NCI-H460 [9] = assay: Induction of apoptosis in human NCI-H460 cells assessed as decrease in pro-PARP expression level at 1 to 20 uM measured after 72 hrs by western blot analysis; type: functional, cell-based; conditions: dose 1-20 µM
NCI-H460 [10] = assay: Antimigratory activity against human NCI-H460 cells assessed as inhibition of cell migration measured after 24 hrs by wound healing assay; type: functional, cell-based; conditions: dose 5-20 µM
NCI-H460 [11] = assay: Antimigratory activity against human NCI-H460 cells assessed as reduction in VEGF expression level measured after 72 hrs by western blot analysis; type: functional, cell-based; conditions: dose 1-20 µM
NCI-H460 [12] = assay: Inhibition of ERK phosphorylation in human NCI-H460 cells at 20 uM measured after 72 hrs by western blot analysis; type: cell-based
[13] = molecular target: MAP kinase p38 (Homo sapiens) (UniProt O15264+Q15759+Q16539+P53778); assay: Inhibition of p38 MAPK phosphorylation in human NCI-H460 cells at 20 uM measured after 72 hrs by western blot analysis; type: cell-based
NCI-H460 [14] = assay: Inhibition of cell proliferation in human NCI-H460 cells assessed as reduction in PCNA expression measured after 72 hrs by western blot analysis; type: functional, cell-based; conditions: dose 1-20 µM

SMILES: COc1cc(CNC(=O)CCCC/C=C/C(C)C)ccc1OCc1nnc(Nc2ccc([N+](=O)[O-])cc2)o1
- growth at 10 µM (CAKI-1): 33.6%
- Activity (NCI-H460 [1]): 28.16%
- Activity (NCI-H460 [2]): 10.03%
- Activity (NCI-H460 [3]): 29.05%
- Activity (NCI-H460 [4]): 56.45%
- Activity (NCI-H460 [5]): 34.83%
- Activity (NCI-H460 [6]): 5.45%
- Activity (NCI-H460 [7]): 9.27%
- Activity (NCI-H460 [8]): 17.44%
- Activity (NCI-H460 [9]): Active
- Activity (NCI-H460 [10]): Dose-dependent effect
- Activity (NCI-H460 [11]): Dose-dependent effect
- inhibition (NCI-H460 [12]): Active
- inhibition [13]: Active
- inhibition (NCI-H460 [14]): Dose-dependent effect
